According to patent US12161669B2, “Compositions and methods for cell targeting therapies” (UMC UTRECHT HOLDING B.V., priority 2017, dated 2024):

Experiments:
[1] = system: RhoB; test: Intracellular RhoB distribution by confocal microscopy in cell lines; type: cell-based; details: cell lines (EBV-LCL 48)
Experimental: For intracellular immunofluorescence staining of RhoB, cells were treated with pamidronate overnight (where indicated) and were allowed to attach onto coverslips precoated with poly-Llysine (Sigma-Aldrich). […] Cells were washed with blocking serum, fixed with 4% paraformaldehyde, stained with DAPI (where indicated), and mounted onto microscopy slides using Mowiol. Images were acquired using a Zeiss confocal laser scanning microscope LSM 700. Ratios between nuclear and extranuclear signal of RhoB was determined using Volocity software (PerkinElmer) or Image J software, where DAPI staining was used, when available, to mark nuclei.

[2] = system: CD277 and F-actin; test: Colocalization of CD277 and F-actin in HEK 293 cells; type: cell-based; details: single agent vs medium
Experimental: To determine colocalization between BTN3 molecules and the actin cytoskeleton, HEK 293 cells were grown onto poly-L-lysin-coated coverslips and pretreated with either calpeptin (2 μg/ml) or C3 transferase (20 μg/ml) prior to treating samples with pamidronate Cells were fixed, permeabilized and BTN3 and F-actin were stained with DyLight 680-conjugated BTN3 antibody (clone BT3.1, Novus Biologicals) and Fluorescein-coupled phalloidin (Sigma), respectively. The correlation coefficient between BTN3 and F-actin signal was determined as a measure of colocalization using Volocity software.

[3] = system: RhoB and CD277; test: Proximity ligation assay of RhoB and CD277 in EBV-LCL 48 cells; type: cell-based; details: ABP pretreated vs medium
[4] = system: CD277; test: Flow cytometry FRET between BODIPY FL-stained membrane and anti-CD277 mAbs (CD277 conformational change), HEK 293 cells; type: cell-based; details: ABP vs unstimulated
Experimental: Conformational change of BTN3 molecule was determined similarly as described in ([…] et al., 2001). Cells were labeled with 5 ug/ml BODIPY-FL DPHE (donor) (Life Technologies) for 10 minutes on ice and then 10 minutes at 37 C, then washed extensively with ice-cold PBS. Cells were subsequently labeled with mouse anti-CD277 mAbs (either clone #20.1 or #103.2) and Alexa594-conjugated Goat anti-Mouse Fab fragments (Jackson ImmunoResearch). After washing, cells were resuspended in ice cold PBS and measured immediately using a FACS Canto-II flowcytometer (BD). FRET efficiency was calculated from the fractional decrease of the donor fluorescence in the presence of the acceptor.

[5] = system: Daudi cells; test: sTCR YG-bead conjugation to Daudi cells; type: binding; details: with vs without PAM
Excerpt: The extracellular domains of the TCR chains were amplified from synthetic DNA encoding the full length TCRs. The domain boundaries were based on ones published before for Vγ9Vδ2 TCR G115. The TCR chains were ligated in to a modified pBullet vector containing a μ-phosphatase signal peptide at the 5′ end and fos zipper at the 3′ end of the construct. The TCRγ chains were ligated in a modified pBullet vector containing a μ-phosphatase signal peptide at the 5′ end and at the 3′ a jun zipper followed by a biotin acceptor peptide and a poly-histidine tag. Synthetic DNA encoding for the bacterial biotin ligase BirA was also ligated in a pBullet vector containing a signal peptide. The expression of soluble γδTCRs was done in Freestyle 293-F cells (ThermoFisher). In short, plasmids containing TCRδ, TCRγ and BirA were mixed into a 45:45:10 ratio, combined with polyethylenimine (PEI) in a 2:3 ratio and incubated for 15′ at room temperature. […]
For tetramer and dextramer staining, 1.0*10^5 cells were incubated with 30 ul tetramer or dextramer solution (100 nM with respect to SA-PE) for 30 minutes at R.T. For beads staining, 7.5*10^4 cells were incubated with 20 μl sTCR-YG-beads (0.33 mg beads/ml) for 30. […] Samples were washed once with 1% formaldehyde and analyzed on a BD FACSCanto II (BD). γδTCR enrichment to synapse and conjugate formation

[6] = system: HEK293FT tumor cells; test: Tumor cell-T cell conjugate formation with HEK293FT cells (confocal); type: cell-based; details: Jurma cells expressing γδTCRs, 100 μM PAM
Experimental: HEK293FT cells were seeded in μ-slide poly-L-lysine pre coated chamber (Ibidi) to adhere overnight. Next day cells were treated with 100 μM PAM for one hour at 37° C. TEGs were added onto HEK293FT cells and incubated at 37° C. for 30-120 minutes. After co-incubation chambers were immediately placed onto ice and fixed with 4% PFA for 30 minutes. Samples were blocked with 1% BSA/FCS and labeled with CD3ε-Alexa Fluor 647 (BD Biosciences) at 2 μg/mL for two hours at room temperature, and finally fixed with 1% PFA+DAPI. Samples were imaged with Zeiss LSM-710 and analyzed with Volocity software (PerkinElmer). In order to quantify the number of conjugates between HEK293FT and TEG cells we calculated the ratio between CD3c positive objects and DAPI positive objects on each image taken. To analyse gamma delta TCR enrichment into the immunological synapse, we calculated the ratio of CD3c signal enrichment inside the contact area versus outside of contact area of the target and effector cell on 63× magnified images. To further assess whether distinct functional avidity of γ9δ2TCRs when expressed in the TEG format is regulated by their ability to mediate binding of TEGs to tumor cell targets a more dynamic model was utilized. […] The number of tumor cell-T cell conjugates was assessed. […]

Which “Re-localization of RhoB from the nucleus or nuclear membrane to extranuclear sites” value [1] does the source give for `NCCC(O)(P(=O)(O)O)P(=O)(O)O` [pamidronate] here?
Its value is “induced”.

And the “colocalization between CD277 and F-actin” value [2]?
The value was “markedly reduced”.

And the “proximity of RhoB and CD277 (PLA signal)” value [3]?
Its value is “in close proximity”.

What about the “FRET between stained membrane and anti-CD277 antibodies (20.1, 103.2)” value [4] of the same compound?
The value was “marked reduction in FRET signals”.

What about the “intensity of TCR-YG-bead conjugation to Daudi cells” value [5] of the same compound?
Its value is “did not change”.

And the “number of tumor cell-T cell conjugates, effect of PAM” value [6]?
Its value is “increased the number of conjugates”.
